One assay addresses Carbonic anhydrase 9 (Homo sapiens, UniProt Q16790). Briefly: Inhibition of recombinant human carbonic anhydrase 9 incubated for 15 mins prior to testing measured for 10 to 100 secs by phenol red-based stopped-flow CO2 hydration assay.
Assay [1] relates to HepG2. Description: Cytotoxicity against human HepG2 cells assessed as reduction in cell viability irradiated with 8 Gy gamma radiation and measured after 24 hrs by MTT assay. It counts as functional, cell-based. The following applies: HepG2, light or radiation study. In general terms: Formazan colour is commonly taken as a measure of viable cells.
The test system of assay [2] is WI-38. Briefly: Cytotoxicity against human WI-38 cells assessed as reduction in cell viability irradiated with 8 Gy gamma radiation and measured after 24 hrs by MTT assay. The class given is cell-based. The following applies: WI-38, light or radiation study.
In assay [3] the test system is MCF7. Description: Cytotoxicity against human MCF7 cells assessed as reduction in cell viability irradiated with 8 Gy gamma radiation and measured after 24 hrs by MTT assay. The class given is functional, cell-based. The following applies: MCF7, light or radiation study.
Assay [4] relates to HCT-116. Description: Cytotoxicity against human HCT-116 cells assessed as reduction in cell viability irradiated with 8 Gy gamma radiation and measured after 24 hrs by MTT assay. It counts as functional, cell-based. The following applies: HCT-116, light or radiation study.
Assay [5] concerns WI-38. Briefly: Cytotoxicity against human WI-38 cells assessed as reduction in cell viability by MTT assay. The class given is cell-based.
The subject of assay [6] is MCF7. Description: Cytotoxicity against human MCF7 cells assessed as reduction in cell viability by MTT assay. It counts as functional, cell-based.
Assay [7] relates to HCT-116. Description: Cytotoxicity against human HCT-116 cells assessed as reduction in cell viability by MTT assay. The class given is functional, cell-based.
The subject of assay [8] is HepG2. Description: Cytotoxicity against human HepG2 cells assessed as reduction in cell viability by MTT assay. The class given is functional, cell-based.

Here are results for 15 molecules from ChEMBL document CHEMBL4680266, “Iodoquinazolinones bearing benzenesulfonamide as human carbonic anhydrase I, II, IX and XII inhibitors: Synthesis, biological evaluation and radiosensitizing activity” (Eur J Med Chem, 2020).

Structures are written as SMILES.

What is called Ki is the equilibrium dissociation constant of an inhibitor or competing ligand from its target. Consider `Cc1ccc(NC(=O)CSc2nc3ccc(I)cc3c(=O)n2-c2ccc(S(N)(=O)=O)cc2)cc1`, for which, at Carbonic anhydrase 9, the inhibitory constant (Ki) was found to be 91.7 nM.
For `COc1cc(NC(=O)CSc2nc3ccc(I)cc3c(=O)n2-c2ccc(S(N)(=O)=O)cc2)cc(OC)c1`, at Carbonic anhydrase 9, the inhibition constant Ki was 29.1 nM.
Same read-out and setting: under `CCc1cccc(NC(=O)CSc2nc3ccc(I)cc3c(=O)n2-c2ccc(S(N)(=O)=O)cc2)c1` stands 55.2 nM; under `Cc1ccccc1NC(=O)CSc1nc2ccc(I)cc2c(=O)n1-c1ccc(S(N)(=O)=O)cc1`, 429 nM.
As to `COc1cc(NC(=O)CSc2nc3ccc(I)cc3c(=O)n2-c2ccc(S(N)(=O)=O)cc2)cc(OC)c1OC`, at Carbonic anhydrase 9, the inhibitory constant (Ki) was determined as 30.4 nM.
Consider `NS(=O)(=O)c1ccc(-n2c(SCC(=O)Nc3ccccc3)nc3ccc(I)cc3c2=O)cc1`, for which the Ki at Carbonic anhydrase 9 was 337 nM.
Still for that read-out and setting: next, `CCc1ccc(NC(=O)CSc2nc3ccc(I)cc3c(=O)n2-c2ccc(S(N)(=O)=O)cc2)cc1`: 67.3 nM; `NS(=O)(=O)c1ccc(-n2c(SCC(=O)Nc3ccc([N+](=O)[O-])cc3[N+](=O)[O-])nc3ccc(I)cc3c2=O)cc1`: 46.9 nM; `CCOc1ccc(NC(=O)CSc2nc3ccc(I)cc3c(=O)n2-c2ccc(S(N)(=O)=O)cc2)cc1`: 34.5 nM.
With `Cc1cc([N+](=O)[O-])ccc1NC(=O)CSc1nc2ccc(I)cc2c(=O)n1-c1ccc(S(N)(=O)=O)cc1`, at Carbonic anhydrase 9, the Ki was 59.1 nM.
For orientation: IC50 means the concentration that gives 50% inhibition. Regarding `CCc1ccccc1NC(=O)CSc1nc2ccc(I)cc2c(=O)n1-c1ccc(S(N)(=O)=O)cc1`, the 50% inhibitory concentration (IC50) in the assay with HepG2 [1] was determined as 41 nM; in the assay on WI-38 [2], 3140 nM; with MCF7 [3], 31 nM; in the assay on HCT-116 [4], 19 nM; in the assay with WI-38 [5] it was 5710 nM; in the assay on MCF7 [6], 3070 nM. Further, the IC50 in the assay on HCT-116 [7] amounted to 1940 nM; in the assay with HepG2 [8], 1780 nM. Also, the Ki at Carbonic anhydrase 9 is 29.1 nM.
For the molecule `Cc1cccc(NC(=O)CSc2nc3ccc(I)cc3c(=O)n2-c2ccc(S(N)(=O)=O)cc2)c1`, the Ki on Carbonic anhydrase 9 came out at 244 nM.
The same measure, in the same setting: next, `NS(=O)(=O)c1ccc(-n2c(S)nc3ccc(I)cc3c2=O)cc1`: 2230 nM; `COc1ccc(NC(=O)CSc2nc3ccc(I)cc3c(=O)n2-c2ccc(S(N)(=O)=O)cc2)cc1`: 73.2 nM.
Same read-out and setting: under `Cc1cccc([N+](=O)[O-])c1NC(=O)CSc1nc2ccc(I)cc2c(=O)n1-c1ccc(S(N)(=O)=O)cc1` stands 90.3 nM.
